# How the values were obtained:
# [1] = biological target: T1, GAC (Mus musculus, UniProt D3Z7P3); assay: Real-time GAC enzyme activity assay coupled to glutamate dehydrogenase (NADH fluorescence); assay type: biochemical; settings: for concentration inhibiting the GAC isoform compared with parent compound 968: in vitro inhibition, FIG. 9 / FIG. 11
# T1 construct: (residues 72-603) was cloned into a pET23a vector; His-tag with thrombin cleavage site (N, cleaved yes); made in house
# T1 sequence (D3Z7P3 72-603 isoform D3Z7P3-2): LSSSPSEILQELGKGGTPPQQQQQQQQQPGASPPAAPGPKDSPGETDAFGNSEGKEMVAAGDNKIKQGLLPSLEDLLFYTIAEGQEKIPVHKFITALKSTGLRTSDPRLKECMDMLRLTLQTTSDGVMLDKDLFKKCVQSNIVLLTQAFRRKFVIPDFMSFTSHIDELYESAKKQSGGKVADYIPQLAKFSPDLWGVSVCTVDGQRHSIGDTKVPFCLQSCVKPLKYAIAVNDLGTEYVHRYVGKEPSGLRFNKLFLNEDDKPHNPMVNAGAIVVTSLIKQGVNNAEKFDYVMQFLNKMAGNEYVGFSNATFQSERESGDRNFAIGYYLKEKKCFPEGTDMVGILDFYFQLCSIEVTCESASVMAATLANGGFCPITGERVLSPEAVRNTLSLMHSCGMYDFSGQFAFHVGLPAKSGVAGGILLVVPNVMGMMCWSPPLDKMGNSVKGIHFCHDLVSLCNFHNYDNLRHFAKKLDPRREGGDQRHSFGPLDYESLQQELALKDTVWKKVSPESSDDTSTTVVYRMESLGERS
# Description: A plasmid encoding the mouse kidney-type glutaminase isoform 2 (GAC, GenBank Accession No. NP_001106854.1, which is hereby incorporated by reference in its entirety) (residues 72-603) was cloned into a pET23a vector containing an N-terminal histidine (His)-tag and thrombin cleavage site. The expressed protein was purified using Co^2+ affinity beads (Clontech), followed by His-tag cleavage with human thrombin (Haemetologic Technologies) overnight at 4° C., and subsequently purified by anion exchange (GE healthcare) and gel filtration chromatography. Purified GAC was stored in a high salt-containing buffer (20 mM Tris-HCl pH 8.5, 500 mM NaCl, 1 mM NaN3) at −80° C., following snap freezing in liquid N2 for long term use. Labeling recombinant GAC with small molecule probes was performed by exchanging 1.5 mg of enzyme into 50 mM HEPES, pH 7.2, and 100 mM NaCl (labeling buffer), using a PD10 desalting column (GE healthcare). The enzyme was then incubated with 50 μM (5-fold excess of enzyme) of either AlexaFluor 488 succinimidyl ester or QSY9 succinimidyl ester (Molecular Probes) for 1 hour at 4° C. After 1 hour, the labeling reaction was quenched with 150 mM Tris-HCl, pH 8.5, and unreacted probe was separated from labeled-enzyme using a PD10 desalting column, eluting labeled-GAC back into the high salt-containing buffer. The stoichiometry of labeling was determined using the probe manufacturer's reported molar absorptivity values and instructions. Briefly, the concentration of GAC was determined by first correcting absorbance at 280 nm (Abs280) for each probe, using the reported correction values (0.11 for AlexaFluor 488 and 0.23 for QSY-9) and their absorbance values at their absorbance maxima (495 nm and 562 nm, respectively). The corrected Abs280 was used along with the experimentally determined molar absorptivity of GAC (ε280=38,850 M−1 cm−1). AlexaFluor 488 and QSY-9 probes were quantified using their respective absorbance maxima and the manufacturer's reported molar absorptivity values (ε495=71,000 M−1 cm−1 and ε562=85,000 M−1 cm−1).
# Real-time fluorescence monitoring of 968 binding and GAC activity through production of NADH was performed on a Varian Cary Eclipse Fluorometer, whereas small molecule inhibition and binding titrations were performed in a 96-well format in a Tecan Saphire absorbance and fluorescence plate reader. Samples for monitoring real-time binding of 968 to 488-GAC were prepared by adding 10 μL of varying concentrations of 968 prepared in DMSO to an equilibrated 1 mL sample of 10 nM 488-GAC, while observing 488 fluorescence (490 nm excitation/520 nm emission). Similarly, this method was replicated for monitoring real-time binding of 968 to mutant forms of GAC, namely 488-labeled GAC (GD391K) and 488-GAC (D391K, K316E, R459E). Real-time activity assays monitoring 968 binding and NADH production were prepared in 1 mL samples, where 10 units of glutamate dehydrogenase (Sigma) and 2 mM NAD+ (Sigma) were prepared in 50 mM Tris-Acetate, pH 8.5, 0.1 mM EDTA and equilibrated at 20° C. WT GAC (10 nM) was added and allowed to equilibrate 2 minutes before monitoring the fluorescence emission of 488-GAC (490 nm excitation, 520 nm emission) and NADH (340 nm excitation, 490 nm emission). Appropriate dilutions of 968 or BPTES prepared in DMSO were introduced after 30 seconds and allowed to equilibrate for 2 minutes before a 180 μL solution of K2HPO4 and glutamine was added to make a final concentration of 50 mM K2HPO4 and 20 mM glutamine, to initiate GAC activation. The activity of GAC was measured in a coupled assay, by monitoring the NADH produced by glutamate dehydrogenase, which converts the product of the glutaminase-catalyzed reaction, glutamate, to α-ketoglutarate and ammonia by reducing NAD+ to NADH. […]
# [2] = biological target: T2, 488-GAC and QSY9-GAC (Mus musculus, UniProt D3Z7P3); assay: FRET assay for GAC tetramer formation; assay type: binding; settings: 25 nM 488-GAC and 25 nM QSY9-GAC
# T2 construct: (residues 72-603) was cloned into a pET23a vector; His-tag with thrombin cleavage site (N, cleaved yes); made in house
# T2 sequence (D3Z7P3 72-603 isoform D3Z7P3-2): T1 sequence (D3Z7P3 72-603 isoform D3Z7P3-2)
# Description: Fluorescence experiments were performed using a Varian Cary Eclipse Fluorometer in the counting mode. Excitation and emission wavelengths were 490 and 520 nm, respectively. Experiments were all performed using 1-mL samples with continuous stirring at 20° C. in 50 mM Tris-Acetate, pH 8.5, 0.1 mM ethylenediamine tetraacetic acid (EDTA). For wild-type (WT) GAC titrations in the absence of inorganic phosphate, 25 nM 488-GAC was equilibrated with 25 μL of QSY9-GAC (at varying concentrations) and allowed to equilibrate for 10 minutes, at which point 75 μL of the appropriate concentration of unlabeled WT GAC was added to provide a 10-fold excess over labeled-GAC. To test whether the purified GAC mutants can form oligomers with WT GAC, 200 nM QSY9-GAC (D391K) or 200 nM QSY9-GAC (D391K, K316E, R459E) was added to an equilibrated sample of 20 nM 488-WT GAC. When assaying the effects of BPTES and 968 on oligomer formation, BPTES or 968 was added following equilibration of a sample of 25 nM QSY9-WT GAC and 25 nM 488-WT GAC. Both BPTES and 968 were prepared in DMSO, and appropriate dilutions were made so that less than 2% (v/v) DMSO was added to an experimental sample.
# [3] = biological target: T3, 488-GAC (mouse kidney-type glutaminase isoform 2, GAC) (Mus musculus, UniProt D3Z7P3); assay: Real-time binding assay, quenching of 488-GAC fluorescence; settings: 10 nM 488-GAC, 10 μM BPTES
# T3 construct: (residues 72-603) was cloned into a pET23a vector; His-tag with thrombin cleavage site (N, cleaved yes); made in house
# T3 sequence (D3Z7P3 72-603 isoform D3Z7P3-2): T1 sequence (D3Z7P3 72-603 isoform D3Z7P3-2)
# Description: A plasmid encoding the mouse kidney-type glutaminase isoform 2 (GAC, GenBank Accession No. NP_001106854.1, which is hereby incorporated by reference in its entirety) (residues 72-603) was cloned into a pET23a vector containing an N-terminal histidine (His)-tag and thrombin cleavage site. The expressed protein was purified using Co^2+ affinity beads (Clontech), followed by His-tag cleavage with human thrombin (Haemetologic Technologies) overnight at 4° C., and subsequently purified by anion exchange (GE healthcare) and gel filtration chromatography. […] The stoichiometry of labeling was determined using the probe manufacturer's reported molar absorptivity values and instructions. Briefly, the concentration of GAC was determined by first correcting absorbance at 280 nm (Abs280) for each probe, using the reported correction values (0.11 for AlexaFluor 488 and 0.23 for QSY-9) and their absorbance values at their absorbance maxima (495 nm and 562 nm, respectively). The corrected Abs280 was used along with the experimentally determined molar absorptivity of GAC (ε280=38,850 M−1 cm−1). AlexaFluor 488 and QSY-9 probes were quantified using their respective absorbance maxima and the manufacturer's reported molar absorptivity values (ε495=71,000 M−1 cm−1 and ε562=85,000 M−1 cm−1). […]
Compound,concentration inhibiting the GAC isoform compared with parent compound 968 [1],other results
O=C(Cc1ccccc1)Nc1nnc(CCSCCc2nnc(NC(=O)Cc3ccccc3)s2)s1 [BPTES],,"inhibition of GAC activity ([1]; 10 nM 488-GAC, 10 μM BPTES): strongly inhibits; effect on GAC tetramer formation (488-GAC emission in mixture with QSY9-GAC) [2]: immediate quenching; effect on 488-GAC fluorescence [3]: does not directly affect"
CN(C)c1ccc(C2Nc3c(ccc4ccccc34)C3=C2C(=O)CC(C)(C)C3)cc1Br (centres unmarked) [SU-1],"lower concentration than the parent compound, 968",
CN(C)c1ccc(C2Nc3ccc4ccccc4c3C3=C2C(=O)CC(c2ccccc2)C3)cc1Br (centres unmarked) [SU-10],"lower concentration than the parent compound, 968",
CN(C)c1ccc(C2Nc3ccc4cc5ccccc5cc4c3C3=C2C(=O)CC(C)(C)C3)cc1Br (centres unmarked) [SU-14],"lower concentration than the parent compound, 968",
CC1(C)CC(=O)C2=C(C1)c1cc(-c3ccccc3)ccc1NC2c1ccc(-c2ccccc2)cc1 (centres unmarked) [SU-15],"lower concentration than the parent compound, 968",
CN(C)c1ccc(CNc2cccc3ccccc23)cc1Br [SU-20],"lower concentration than the parent compound, 968",
CC1(C)CC(=O)C2=C(C1)c1c(ccc3cc4ccccc4cc13)NC2c1ccc(C2(C(F)(F)F)N=N2)cc1 (centres unmarked) [SU-24],"lower concentration than the parent compound, 968",
[O-][NH2+]c1cc(CNc2ccc3ccccc3c2)ccc1N1CCCC1 [SU-29],"lower concentration than the parent compound, 968",
CCN(CC)c1ccc(CNc2ccc3ccccc3c2)cc1[NH2+][O-] [SU-31],"lower concentration than the parent compound, 968",

# — patent US10526322B2, “Inhibitors of kidney-type glutaminase, GLS-1” (CORNELL UNIVERSITY, priority 2014, dated 2020)
